Source: patent EP0380370A2, “Inhibiting tumour recurrence after surgical resection” (The Children's Medical Center Corporation, priority 1989, dated 1990)
Like-named read-outs stand apart in the source and are kept apart here. Where a SMILES comes first, the peptide text is derived from it.

Assays:
[1] = tested on: B16-F10; experiment: in vitro tumor cell attachment assay on gelatinized culture plates (acid phosphatase colorimetric readout); assay type: cell-based
Method: The following two examples of assays for suitable agents are designed to approximate a wound environment, and thus act as quick tests for suitable agents for practical use in particular circumstances. These assays are not limiting to the application. One example of an in vitro assay for determining the effect of one of the above agents on tumor cell attachment was performed as follows. Gelatinized 96-well tissue culture plates (Co-star, Cambridge, MA) were prepared by treating a standard culture plate with 100 microliters of 1.5% gelatin (Difco, Detroit, MI) in phosphate-buffered saline (PBS) and incubating the plate at 37°C for at least 24 hours. The solution was then aspirated and the cells washed twice with 200 microliters of PBS prior to use. Test agents were diluted in Dulbecco's Modified Eagles Medium (DMEM; Gibco Laboratories, Grand Island, NY) containing 10% fetal calf serum (FCS; Gibco), and 100 microliters of the diluted agent added to each well. […] The cells were grown in DMEM supplemented with 10% FCS, 2 mM glutamine and 100 units per ml penicillin and streptomycin.
After the cells and agent were incubated, the medium was aspirated from each well and the well washed twice with 200 microliters of PBS. […] Briefly, 100 microliters of an acid phosphatase reagent (0.1M sodium acetate, 0.01M p-nitrophenyl phosphate, 0.1% Triton-X 100) was added to each well, the plates incubated at 37°C for two hours, and 10 microliters 1N NaOH added to each well. The optical density of each well was read at 405nm on a Biotek ELISA reader. The optical density is directly related to cell number. The results were expressed as percent of optical density in untreated control wells,and represent the mean of at least three wells.

[2] = tested on: B16-F10; experiment: reversibility test: unattached cells washed and replated on gelatinized plates in new medium; assay type: cell-based; settings: cells replated in fresh medium in new dishes
Method: In order to determine whether inhibition of cell attachment was non-toxic and reversible with any particular agent, the tumor cells were incubated in the presence of the agent and unattached cells collected, washed twice with serum containing medium, and replated on gelatinized well plates in new culture medium. Control cells were handled in a similar manner, except that they were removed from wells 16 hours after incubation by trypsinization. After incubation for 4-16 hours, the medium was aspirated, the wells washed twice with 200 microliters of PBS, and the remaining attached cells trypsinized and counted with a Coulter counter.

[3] = tested on: B16-F10 melonoma; assay type: in vivo, C57 B1/6 mice
Method: Inhibitors of tumor cell attachment in vivo are tested by their ability to block tumor cell attachment in a surgical wound. Wounds were made on the backs of C57 B1/6 mice (Charles River Laboratories, Wilmington, MA) using aseptic procedures under methoxyflurane anesthesia (Pittman-Moore Inc., Washington Crossing, NJ). […] The scissors were used to create a lateral subcutaneous pocket off a dorsal mid-line wound in an uncontaminated animal. Prior to use, the scissors were inspected to insure that no visible tissue was present on them. Prior to closure, the wounds were vigorously irrigated with 3ml of Ringers lactate supplemented with a chosen agent. Excess fluid was then expressed and the wound closed with skin clips.

[4] = tested on: cancer cells; settings: cited from earlier work

Question: For `N=C(N)NCCC[C@H](NC(=O)CN)C(=O)NCC(=O)N[C@@H](CC(=O)O)C(=O)N[C@@H](CO)C(=O)N1CCC[C@H]1C(=O)O` [GRGDSP, glycine-arginine-glycine-aspartate-serine-proline], which “concentrations at which tumor cell attachment was inhibited” value [1] is on record?
Answer: The value was “greater than 10 mg/ml”.

Question: What about the “reversibility of inhibition of tumor cell attachment” value [2] of the same compound?
Answer: The value was “reversibly inhibited”.

Question: What does the source list for `N=C(N)NCCC[C@H](NC(=O)CN)C(=O)NCC(=O)N[C@@H](CC(=O)O)C(=O)N[C@@H](CO)C(=O)O` [GRGDS]?
Answer: infection from use of the agents ([3]; mouse, in vivo): No evidence of infection; wound healing process ([3]; mouse, in vivo): nor was the wound healing process delayed; average volume of tumors formed in other animals ([3]; versus control animals): significantly smaller; formation of tumors in animals ([3]; wound irrigation): inhibited formation of a significant percentage of tumors

Question: For `N=C(N)NCCC[C@H](NC(=O)CN)C(=O)NCC(=O)N[C@@H](CCC(=O)O)C(=O)N[C@@H](CO)C(=O)N1CCC[C@H]1C(=O)O` [GRGESP, glycine-arginine-glycine-glutamate-serine-proline] (H-GRGESP-OH), which “attachment of B16 melanoma cells” value ([1]; compared with GRGDSP) is on record?
Answer: Its value is “inhibited attachment of B16 melanoma cells but was less effective”.

Question: With `O=C(O)[C@@H]1CCN1` [LACA, L-azetidine-2-carboxylic acid] as the compound, how does the minimal effective concentration ([1]; Mus musculus, B16-F10, read-out: doses at which tumor cell attachment was inhibited) read?
Answer: The minimal effective concentration was greater than 25 µg/mL.

Question: What about the “reversibility of inhibition of tumor cell attachment” value [2] of the same compound?
Answer: The value was “reversibly inhibited”.

Question: What does the source list for `[Na+].[O-]Cl` [sodium hydrochlorite]?
Answer: preventing tumor growth ([4]; 0.5% solution buffered to pH 9): as effective as the above chemicals; toxicity to the animal ([4]; in vivo, pH 9): considerably less toxic

Question: What does the source list for monoxychlorosene?
Answer: toxic effects locally and systemically ([4]; in vivo): highly toxic effects; toxicity to tissues ([4]; in vivo): toxic to tissues; wound healing process ([4]; in vivo): delayed the wound healing process; preventing tumor growth ([4]; one percent solution): ineffective; preventing tumor growth ([4]; two percent solutions): effective
